Active and inactive are the calls of the source.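 Rule for the calls: active = compounds giving half or more protection of infected cells from virus-caused growth loss, again on retest; inactive = the rest.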

For this experiment, the system named is CEM cells HIV-1 protection, formazan growth assay. The experiment can be described thus: NCI AIDS Antiviral Assay. The conditions noted are these: for IC50: measured here: growth of uninfected CEM cells. The procedure, abridged: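 Five concentrations of each compound were applied to infected and uninfected human CEM cells. Protection from HIV-1 was judged from growth measured with a soluble formazan assay.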

In the case of `COc1ccc(-c2nc3c(nc2-c2ccc(OC)cc2)C(N)=NS(=O)(=O)N3)cc1`, the EC50 (in general, the concentration at which the effect is half-maximal) was above 166 µM and the IC50 (as a rule, the midpoint of a concentration-inhibition curve) was above 166 µM.

For the compound `O=C1NC(=O)/C(=C\c2ccncc2)N1`, the EC50 is above 200 µM and the IC50 is above 200 µM.

Regarding `N#C/C(=C\c1ccc(O)c(O)c1)C(=O)NCCc1ccc(O)c(O)c1`, the EC50 is above 200 µM and the IC50 turned out to be 30.9 µM.

For the compound `CN1C2Cc3cc4c(cc3[C@@]23Cc2ccc5c(c2[C@@H]1O3)OCO5)OCO4` (some centres not stated), the EC50 is above 200 µM and the IC50 was 120 µM.

With `O=C1c2ccccc2-n2c1nc1ccccc1c2=O`, the EC50 is above 200 µM and the IC50 turned out to be 52.5 µM.

Take `Nc1ncnc2c1ncn2CC(O)CO` (configuration not stated): the outcome was inactive.

Turning to `CC1(C)C(=O)/C=C\C(=O)C(C)(C)C2=CC=C(O2)C(C)(C)C(=O)C(Br)C(Br)C(=O)C(C)(C)C2=CC=C1O2` (configuration not stated), the result was inactive.

Regarding `CCOc1ccc(-n2nc(C(=O)O)cc(Cl)c2=O)cc1`, the EC50 was above 427 µM and the IC50 stood at 18.2 µM.

For `CCOC(=O)/C=C(\CCOC1CCCCO1)[Si](C)(C)c1ccccc1` (configuration not stated), the EC50 is above 20 µM and the IC50 is above 20 µM.

As to `O=C(CC(NC(=O)C(F)(F)F)C(=O)O)OCc1ccccc1` (configuration not stated), the EC50 was above 200 µM and the IC50 was above 200 µM.

Regarding `C=CCNC(=S)/N=C\C(C(=O)OCC)=C(/O)C(=O)OCC`, the EC50 was above 200 µM and the IC50 was above 200 µM.

For the compound `COc1ccc(C2C(Cl)C(=O)N2NC(=O)c2ccc(N)cc2)cc1` (configuration not stated), the EC50 is above 200 µM and the IC50 was above 200 µM.

For the compound `Brc1ccc(-c2ccc3nnnn3n2)s1`, the EC50 is above 200 µM and the IC50 was above 200 µM.

Regarding `COC(=O)/C(=N/NC(N)=O)C(C(=O)C(=O)Nc1ccc(C)cc1)c1nc2ccc(C(=O)c3ccccc3)cc2[nH]c1=O` (configuration not stated), the EC50 is above 33.1 µM and the IC50 was above 33.1 µM.

For `O=C(OCCN1CCCCC1)c1cc2ccccc2n1-c1ccccc1`, the EC50 is above 200 µM and the IC50 stood at 97.7 µM.

As to `COc1ccc(-c2cc(-c3ccco3)c(C#N)c(=S)n2C2OC(CO)C(O)C(O)C2O)cc1` (configuration not stated), the EC50 is 37.2 µM and the IC50 was above 200 µM.

As to `CCOP(=O)(OCC)/C(C#N)=C/c1nc[nH]c1C`, the EC50 is above 200 µM and the IC50 is above 200 µM.

On to `CC1=CCS(=O)(=O)C1C(O)C1=C(C)CCCC1(C)C` (configuration not stated), for which the EC50 was above 200 µM and the IC50 was found to be 40.7 µM.

In the case of `CC(C#N)N(C(C)C#N)N(C)C` (configuration not stated), the outcome was inactive.

Consider `N#CC(C(=O)CCC(=O)C(C#N)c1ccccc1)c1ccccc1` (configuration not stated), for which the EC50 is above 398 µM and the concentration for half-maximal inhibition (IC50) is above 398 µM.

As for `CCOP(=O)(/C=C(\Cl)c1ccccc1)OCC`, the EC50 is above 129 µM and the IC50 is above 129 µM.

For `CC1CCC2C(C)C(=O)OC3OC4(C)CCC1C32OO4` (configuration not stated), the EC50 is above 457 µM and the IC50 worked out at 288 µM.

Take `CN1CN(c2ccccc2)C2(CCN(CCCC(=O)c3cccs3)CC2)C1=O`: the EC50 was above 200 µM and the concentration for half-maximal inhibition (IC50) turned out to be 38.9 µM.

Consider `CC(=O)c1cccc(NC(=O)C(=O)C(c2cnc3ccc([N+](=O)[O-])cc3n2)[N+](=O)[O-])c1` (configuration not stated), for which the EC50 was above 117 µM and the IC50 was above 117 µM.

As for `COc1ccc(CCN(C)C2CCC(C#N)(c3ccc(OC)c(OC)c3)CC2)cc1OC` (configuration not stated), the EC50 was above 145 µM and the IC50 was determined as 74.1 µM.

For the compound `O=S(=O)(O)c1cc(N/N=C/c2cc(S(=O)(=O)O)c3cccnc3c2O)ccc1/C=C/c1ccc(N/N=C/c2cc(S(=O)(=O)O)c3cccnc3c2O)cc1S(=O)(=O)O`, the concentration for a half-maximal effect (EC50) was 13.5 µM and the 50% inhibitory concentration (IC50) stood at 129 µM.

The compound `Cc1ccc(C(=O)c2ccccc2)c(C(=O)O)c1` yielded an EC50 above 200 µM and an IC50 above 200 µM.

As for `N#C/C(=C\c1cccc2ccccc12)c1ccc(Cl)cc1`, the EC50 is above 200 µM and the IC50 amounted to 95.5 µM.

In the case of `CC(C)(C)OC(=O)NCC(=O)NC1c2ccsc2/C(=N/O)[C@H]1O` (some centres not stated), the EC50 was above 200 µM and the IC50 is above 200 µM.

In the case of `C/C=C1\CC(C(=O)OCC)CCCCCCCCCCC1=O` (configuration not stated), the EC50 is above 200 µM and the IC50 came to 8.51 µM.

With `c1ccc(SCCCC(Sc2ccccc2)Sc2ccccc2)cc1`, the result was inactive.

As to `O=C(Nc1ccc(O)c(C(=O)O)c1)c1ccccc1`, the EC50 was above 200 µM and the IC50 is above 200 µM.

Turning to `C/C(CCn1[nH]c(=O)ccc1=O)=N\OCCCc1ccccc1`, the EC50 was above 417 µM and the IC50 was above 417 µM.

Turning to `COC(=O)c1cc(C(=CC(=O)N[C@@H]2CC[C@@]3(C)[C@@H](CC[C@@H]4[C@@H]3CC[C@]3(C)[C@@H]([C@H](C)CCCC(C)C)CC[C@@H]43)C2)c2cc(Cl)c(OC)c(C(=O)OC)c2)cc(Cl)c1OC`, the EC50 is above 100 µM and the IC50 is above 100 µM.

Turning to `Cc1cc(N(CCC#N)CCC#N)ccc1/C(N=Nc1ccc(C(=O)O)cc1)=N\NC(=O)c1ccccc1`, the EC50 is above 200 µM and the IC50 worked out at 13.5 µM.

For the compound `CCOC(=O)Cc1nc2ccc3c(c2[nH]c1=O)C(=O)c1ccccc1C3=O`, the EC50 is above 14.5 µM and the IC50 is above 14.5 µM.

For the compound `Cc1c(C#N)c2n(c1C)CCCC(=O)N2`, the EC50 was above 219 µM and the IC50 is above 219 µM.

In the case of `O=CN/C=C/c1cc(O)ccc1O`, the EC50 is above 79.4 µM and the IC50 was 4.57 µM.

`O=C1C2c3[nH]c4ccccc4c3C3CCC(c4ccccc4)CC3C2C(=O)N1c1ccccc1` (configuration not stated): the result was inactive.

Regarding `O=c1[nH]c2c(c3ccccc13)CCc1ccccc1-2`, the result was inactive.

As for `N#Cc1ccc(/C=N\N2C(=O)c3ccccc3C2=O)cc1`, the EC50 was above 26.3 µM and the IC50 was above 26.3 µM.

On to `COC(=O)CCC1CCc2c(OC)ccc(OC)c2C1=O` (configuration not stated), for which the outcome was inactive.

For `CC1(C)C(=O)C(C)(C)C(=O)C(C)(C)C1=O`, the outcome was inactive.

As to `COc1cc(/C=C2\C(=O)N(c3ccc(NC(C)=O)cc3)C(c3ccccc3)S2(=O)=O)cc(OC)c1OC` (configuration not stated), the EC50 was above 200 µM and the IC50 worked out at 87.1 µM.

`O=C(N/N=C1\CCc2ccccc21)N/N=C1\CCc2ccccc21`: the EC50 is above 200 µM and the IC50 is above 200 µM.

Turning to `O=C(Nc1ccc(C2=NCCN2)cc1)Nc1cccc(C(=O)Nc2ccc(C3=NCCN3)cc2)c1`, the EC50 was 12.9 µM and the IC50 stood at 74.1 µM.

`CCN(CC)c1ccc(NC(=S)NN(C)C)cc1`: the EC50 was above 200 µM and the IC50 is 52.5 µM.

`N#Cc1ccc(OCc2nc3cc(C(F)(F)F)ccc3nc2-c2ccccc2)cc1`: the EC50 was above 200 µM and the IC50 is 30.2 µM.

As for `O=C(N/N=C(/c1ccccc1)C(F)(F)F)c1ccncc1`, the EC50 was above 200 µM and the IC50 was above 200 µM.

Consider `O=C(O)C1=CC(=C(c2ccc(O)c(C(=O)O)c2)c2ccc(O)c(C(=O)O)c2)C=C(Cc2ccc(O)c(C(=O)O)c2)C1=O`, for which the EC50 is above 1200 µM and the IC50 came out at 195 µM.

On to `CCOC(=O)C1SC(=Nc2ccc(Cl)cc2C)N=C1C` (configuration not stated), for which the EC50 was above 32.4 µM and the IC50 was above 32.4 µM.

Regarding `Cc1cc(C)nc(NS(=O)(=O)c2ccc(Nc3c4ccccc4nc4c(C(=O)NCCN(C)C)ccc(Cl)c34)cc2)n1`, the outcome was inactive.

With `CCCCNc1nc2ccccc2c2c1ncn2CC(C)C`, the EC50 is above 200 µM and the IC50 worked out at 20 µM.

As for `Cc1c2ccncc2c(C)c2c1[nH]c1ccc(F)cc12`, the EC50 is above 200 µM and the IC50 is 0.437 µM.

On to `c1ccc(SC2CCCO2)cc1` (configuration not stated), for which the result was inactive.

`CCOP(=O)(OCC)C(Nc1ccc(F)cc1)c1ccccc1` (configuration not stated): the EC50 is above 200 µM and the half-inhibitory concentration (IC50) was 89.1 µM.

Take `Cc1ccc(N(C)S(=O)(=O)c2ccccc2)cc1`: the EC50 is above 145 µM and the IC50 was found to be 67.6 µM.

Turning to `Brc1ccc(CCc2ncc[nH]2)cc1`, the EC50 was above 282 µM and the IC50 amounted to 174 µM.

On to `COc1ccc(Cc2c3cc(O)c(=O)cc-3ccn2C)cc1OC`, for which the EC50 was above 15.8 µM and the IC50 was 8.13 µM.

As to `CCOC(=O)c1cc2c(nc1NCc1ccc(OC)c(OC)c1)/C(=C/c1ccccc1)CCCC2`, the EC50 is above 200 µM and the IC50 came out at 10.2 µM.

On to `CSc1nc2c(c(O)c(C)c(=O)n2C2OC(COC(C)=O)C(OC(C)=O)C(OC(C)=O)C2OC(C)=O)c(=O)n1C` (configuration not stated), for which the EC50 was above 44.7 µM and the IC50 is above 44.7 µM.

For the compound `O=C(/C=C(\S/C=C(/c1ccccc1)N1CCn2c(C(=O)c3ccccc3)c(C(=O)c3ccccc3)c(C(=O)c3ccccc3)c21)C(=O)c1ccccc1)c1ccccc1`, the EC50 was above 200 µM and the IC50 is 37.2 µM.

As for `NS(=O)(=O)c1cc2c(cc1Cl)NC=NS2(=O)=O`, the EC50 was above 851 µM and the IC50 was above 851 µM.

`COc1ccc(N2C=Nn3c(nc4sc(C)c(C)c4c3=O)C2)cc1`: the result was inactive.

In the case of `Cc1cc(Cc2cccc3ccccc23)nc2c1ccc1ccccc12`, the EC50 was above 200 µM and the IC50 was found to be 110 µM.

For `CCOC(=O)C1=C(C)N2CCCOC2(C)C(C(=O)OC)C1c1cccc([N+](=O)[O-])c1` (configuration not stated), the EC50 is above 200 µM and the IC50 came to 69.2 µM.

Take `CC(C)N1CN(C(C(=O)N[C@@H]2C(=O)N3C2SC(C)(C)C3C(=O)O)c2ccccc2)CSC1=S` (some centres not stated): the EC50 is above 257 µM and the IC50 worked out at 155 µM.

In the case of `CN(C)CCC(/C=C/c1ccccc1)=N\Nc1ccccc1`, the result was inactive.

In the case of `O=C1CC(CC(=O)c2ccc(Br)cc2)C(=O)/C1=C(/O)c1ccc(Br)cc1` (configuration not stated), the EC50 is above 200 µM and the IC50 turned out to be 41.7 µM.

For the compound `Nc1ccc(C(=O)Nn2c(-c3ccccc3)nc3ccccc3c2=O)cc1`, the EC50 is above 200 µM and the IC50 is above 200 µM.

For `CC(=O)Nc1ccc(S(=O)c2ccc(NC(C)=O)cc2)cc1`, the EC50 was above 81.3 µM and the IC50 is above 81.3 µM.

On to `CNC(=O)OC(COC)CN1CCN(c2ccccc2C)CC1` (configuration not stated), for which the EC50 is above 200 µM and the IC50 was above 200 µM.

Values taken from PubChem BioAssay AID179 (DTP/NCI, 2004).
